Source: the supplement of paper PMC13380429

Columns and labels:
Conditions in all cases: 72 h
Caco-2 [1] = assay: cell viability relative to DMSO; higher = less toxic
Calu-3 [2] = assay: as above
HepG2 [3] = assay: as above
U2OS [4] = assay: as above
Vero E6 [5] = assay: as above
Caco-2 [6] = assay: relative viability EC50 (midpoint between 100% and the lowest measured viability); higher = less toxic
Calu-3 [7] = assay: as above
HepG2 [8] = assay: as above
U2OS [9] = assay: as above
Vero E6 [10] = assay: as above
Caco-2 [11] = assay: drug sensitivity score (DSS) for viability; higher = more toxic; extreme values may be limits of the assay
Calu-3 [12] = assay: as above
HepG2 [13] = assay: as above
U2OS [14] = assay: as above
Vero E6 [15] = assay: as above

Row | Structure (SMILES) | cell viability (Caco-2 [1]; 1 nM) | cell viability (Caco-2 [1]; 10 nM) | cell viability (Caco-2 [1]; 100 nM) | cell viability (Caco-2 [1]; 1000 nM) | cell viability (Caco-2 [1]; 10000 nM) | cell viability (Calu-3 [2]; 1 nM) | cell viability (Calu-3 [2]; 10 nM) | cell viability (Calu-3 [2]; 100 nM) | cell viability (Calu-3 [2]; 1000 nM) | cell viability (Calu-3 [2]; 10000 nM) | cell viability (HepG2 [3]; 1 nM) | cell viability (HepG2 [3]; 10 nM) | cell viability (HepG2 [3]; 100 nM) | cell viability (HepG2 [3]; 1000 nM) | cell viability (HepG2 [3]; 10000 nM) | cell viability (U2OS [4]; 1 nM) | cell viability (U2OS [4]; 10 nM) | cell viability (U2OS [4]; 100 nM) | cell viability (U2OS [4]; 1000 nM) | cell viability (U2OS [4]; 10000 nM) | cell viability (Vero E6 [5]; 1 nM) | cell viability (Vero E6 [5]; 10 nM) | cell viability (Vero E6 [5]; 100 nM) | cell viability (Vero E6 [5]; 1000 nM) | cell viability (Vero E6 [5]; 10000 nM) | relative viability EC50 (Caco-2 [6]) | relative viability EC50 (Calu-3 [7]) | relative viability EC50 (HepG2 [8]) | relative viability EC50 (U2OS [9]) | relative viability EC50 (Vero E6 [10]) | drug sensitivity score (Caco-2 [11]) | drug sensitivity score (Calu-3 [12]) | drug sensitivity score (HepG2 [13]) | drug sensitivity score (U2OS [14]) | drug sensitivity score (Vero E6 [15])
1 | C=CCc1ccc(O)c(-c2ccc(O)c(CC=C)c2)c1 [honokiol] | 93.8% | 94.3% | 102% | 90.1% | 90.9% | 104% | 111% | 94.4% | 96.6% | 97% | 108% | 109% | 109% | 93.2% | 88.4% | 94.4% | 95.1% | 99.3% | 99.4% | 88.9% | 95.7% | 98.9% | 97.7% | 95.4% | 107% | > 10 µM | > 10 µM | > 10 µM | > 10 µM | > 10 µM | 0 | 0 | 0.2 | 0 | 0
2 | Nc1nc(-c2ccc(Cl)c(Cl)c2)c(-c2ccncc2)s1 [CGH2466] | 91.8% | 86.1% | 102% | 99.7% | 95.9% | 109% | 100% | 107% | 95.7% | 107% | 96.5% | 104% | 117% | 106% | 112% | 96.5% | 99.9% | 96.3% | 100% | 90.1% | 87.1% | 95.3% | 100% | 93.9% | 93.9% | > 10 µM | > 10 µM | > 10 µM | > 10 µM | > 10 µM | 0 | 0 | 0 | 0 | 0
3 | CCCCCCCCCCCCCCCC(=O)OC(C)C [isopropyl-palmitate] | 101% | 102% | 109% | 90.8% | 90.4% | 106% | 96.6% | 94.3% | 93.8% | 101% | 92.2% | 102% | 99% | 94.8% | 95.8% | 102% | 95.9% | 97.5% | 93.2% | 97.7% | 96% | 98.8% | 99% | 98.8% | 97.2% | > 10 µM | > 10 µM | > 10 µM | > 10 µM | > 10 µM | 0 | 0 | 0 | 0 | 0
4 | COCCCOc1ccnc(C[S+]([O-])c2nc3ccccc3[nH]2)c1C (stereo not given) [rabeprazole] | 99.4% | 102% | 97.3% | 94.8% | 95.6% | 98% | 92.7% | 98.6% | 103% | 100% | 97.6% | 106% | 91.9% | 94.6% | 95.8% | 102% | 97.4% | 100% | 99.9% | 100% | 98% | 108% | 94.3% | 105% | 100% | > 10 µM | > 10 µM | > 10 µM | > 10 µM | > 10 µM | 0 | 0 | 0 | 0 | 0
5 | NCCCC(O)(P(=O)(O)O)P(=O)(O)O [alendronate] | 97.4% | 102% | 96.9% | 99.8% | 94.3% | 85.5% | 103% | 92.3% | 107% | 98.5% | 101% | 91.7% | 107% | 95.4% | 88.8% | 96.6% | 103% | 94.8% | 104% | 97.7% | 102% | 98.5% | 106% | 103% | 106% | > 10 µM | > 10 µM | > 10 µM | > 10 µM | > 10 µM | 0 | 0 | 0.1 | 0 | 0
6 | CC(C)C[C@H](NC(=O)OCc1ccccc1)C(=O)N[C@@H](C[C@@H]1CCNC1=O)C(O)S(=O)(=O)O (stereo not given in full) [GC376 sodium] | 97.2% | 92.6% | 96.7% | 92.7% | 108% | 105% | 92.2% | 99.9% | 104% | 96.1% | 101% | 99.8% | 97% | 102% | 95.4% | 90.4% | 101% | 97.3% | 100% | 108% | 90.3% | 104% | 93.2% | 102% | 108% | > 10 µM | > 10 µM | > 10 µM | > 10 µM | > 10 µM | 0 | 0 | 0 | 0 | 0
7 | O=C(CCCN1CCC(n2c(=O)[nH]c3ccccc32)CC1)c1ccc(F)cc1 [benperidol] | 102% | 99.2% | 98.1% | 102% | 103% | 101% | 88.1% | 82.4% | 94.4% | 99.1% | 103% | 107% | 107% | 107% | 97.5% | 98.2% | 108% | 98.1% | 106% | 96.1% | 105% | 96.2% | 98% | 100% | 95.9% | > 10 µM | > 10 µM | > 10 µM | > 10 µM | > 10 µM | 0 | 0 | 0 | 0 | 0
